Entries after “also recorded” stand apart in the source; their conditions may differ. Where a name gives a salt, the structure may show the parent alone.
How the values were obtained:
[1] = biological target: T1, E. coli nitroreductase (nfsB) (Escherichia coli, UniProt P38489); assay: Rate of fluorescence signal generation in stirred HCT116 NTR cell suspension; format: cell-based; conditions: 300 μM, 355/460
T1 construct: expressed in transfected cells; host or cells: MDA231 (MDA-231) human breast cancer cell line, clonal derivative MDA231 NTR
Method: In a further exemplification, the human colorectal cancer cell line (HCT116^WT) and a clonal derivative (HCT116^NTR) engineered to express the reporter gene E. coli nitroreductase (nfsB) under the control of a constitutive promoter were suspended in stirred culture media at a density of 5×10^6 cells/ml. When samples were equilibrated to 37° C., 5% CO2, compound (2) (1-methyl-6-nitro-4(1H)-quinolinone) was added to a final concentration of 300 μM. Test groups were culture media alone (control), HCT116^WT and HCT116^NTR. The rate of fluorescence signal generation at 355/460 was monitored as a function of time (FIG. 4).

[2] = Aqueous stability in minimal essential media in the absence of cells (background fluorescence); format: physicochemical; conditions: for increase in background florescence in culture media: 300 μM, minimal essential media, 37° C., 5% CO2, 355/460, over 7.8 hours; for aqueous stability compared with methyl-7-nitrocoumarin carboxylate and 7-nitrocoumarin-3-carboxylic acid: FIG. 11
Method: In a further experiment, the aqueous stability of compounds 1 and 2 were compared with the compounds methyl-7-nitrocoumarin carboxylate and 7-nitrocoumarin-3-carboxylic acid in the absence of cell culture. Minimal essential media was equilibrated to 37° C., 5% CO2 for 2 hr and compounds were added to a final concentration of 300 μM. […]

[3] = biological target: T1, E. coli nitroreductase (nfsB); assay: Nitroreductase specificity: fluorescence in MDA231 NTR versus MDA231 WT cells; format: cell-based; conditions: for differential fluorescent signal MDA231 NTR versus MDA231 WT: 95% N2, 355/460, at 7.5 hours
Method: The human breast cancer cell line (MDA231^WT) and a clonal derivative (MDA231^NTR) engineered to overexpress the E. coli nitroreductase (nfsB) under the control of a constitutive promoter were seeded into 96-well plates at a density of 2×10^4 cells/well. When samples were equilibrated to 37° C., 95% N2, 5% CO2 for 2 hr and compound 2 or methyl 7-nitrocoumarin carboxylate (methyl 7-nitro-2-oxo-2H-chromene-3-carboxylate) were added to a final concentration of 300 μM. The fluorescence signal was monitored at 355/460 over a 7.5 hour time frame (FIG. 10).

[4] = biological target: T2, NAD(P)H dehydrogenase quinone 1 (DT-diaphorase; NQO1) (Homo sapiens, UniProt P15559); assay: Detecting human aerobic nitroreductase activity in MDA231 DTD cells; format: cell-based; conditions: for fluorescent signal in the presence of human NQO1 expression: MDA231 DTD cells, 100 μM, 4 hr (FIG. 5)
T2 construct: expressed in transfected cells; host or cells: MDA231 human breast cancer cell line, clonal derivative MDA231 DTD
Method: The human breast cancer cell line (MDA231^WT) and a clonal derivative (MDA231^DTD) engineered to express the human aerobic reductase, NAD(P)H dehydrogenase quinone 1 (DT-diaphorase; NQO1) under the control of a constitutive promoter were seeded into 96-well plates at a density of 1×10^5 cells/well. When samples were equilibrated to 37° C., 5% CO2 for 2 hr and compounds 1 to 15 were added to a final concentration of 100 μM for 4 hr. Test groups were cell-free culture media alone (control), MDA231^WT and MDA231^DTD. The fluorescence signal was monitored at 355/460 except for compounds 4 and 11 that were monitored at 405/585 and compounds 8 and 10 that were monitored at 355/585 and 355/535 respectively (FIG. 5).
In a further exemplification, the human breast cancer cell line (MDA231^WT) and a clonal derivative (MDA231^DTD) engineered to express the human NQO1 gene (DT-diaphorase) under the control of a constitutive promoter were seeded into 96-well tissue culture plates at 1×10^5 cells/well. Samples were equilibrated to 37° C., 5% CO2, compound (1) (6-nitro-4(1H)-quinolinone) was added to a final concentration of 300 μM. Test groups were culture media alone (control), MDA231^WT cells and MDA231^DTD cells. The rate of fluorescence signal generation at 355/460 was monitored as a function of time (FIG. 6).

[5] = biological target: T1, E. coli nitroreductase (nfsB); assay: Entrapment of fluorescent products within nitroreductase expressing HCT116 cells; format: cell-based; conditions: washed; for cellular retention of fluorescence in nitroreductase expressing but not parental HCT116 cells: 10 μM for 1.5 hr, 6 hours post-exposure
Method: The human colorectal cancer cell line (HCT116^WT) and a clonal derivative (HCT116^NTR) engineered to express the reporter gene E. coli nitroreductase (nfsB) under the control of a constitutive promoter were seeded onto glass coverslips at an equal density (50:50). Cells were equilibrated to 37° C., 5% CO2, and compound 1 and 13 was added to a final concentration of 100 μM for 1 hr. Cells were washed free of compound after 1 hour and fluorescence was monitored as a function of time (FIG. 8).
In further screening (FIG. 9), the human colorectal cancer cell line (HCT116^WT) and a clonal derivative (HCT116^NTR) engineered to express the reporter gene E. coli nitroreductase (nfsB) under the control of a constitutive promoter were seeded separately into a 96-well glass plate. Cells were equilibrated to 37° C., 5% CO2, and compounds were added to a final concentration of 10 μM for 1.5 hr. Cells were washed free of compound and fluorescence was monitored 6 hours post-exposure. […] The image has been rendered monochromatic for the purposes of publication quality.

[6] = biological target: T3, Escherichia coli nfsB (NfsB) (Escherichia coli, UniProt P38489); assay: Multiplexed reporter detection with compounds 4 and 16 in MDA-231 cells expressing nfsB; format: cell-based; conditions: 100 μM, 4 h, platereader, MDA-231 WT/NfsB/CYPOR
T3 construct: expressed in transfected cells; host or cells: MDA231 (MDA-231) human breast cancer cell line, clonal derivative MDA231 NTR
Method: Compounds 4 and 16 (as representative nitro-substituted aromatic compounds of the present invention) were utilized to exemplify the ability to detect individual cell populations. […] 30,000 cells were seeded into a plastic 96-well plate in a volume of 0.1 mL. After 2 h attachment samples were incubated with either 200 μM 16 or 100 μM 4 by dilution of DMSO stock solutions into culture medium and addition of 0.1 mL directly into wells. Plates were incubated for 4 h before being read on a fluorescent platereader at Ex/Em 355/460 and 485/535. Values represent the fluorescence in the presence of cells—blank (fluorescence in the absence of cells). When the data were collated it was evident that the fluorescent output of each cell population could be identified with minimal interference from the other reductases-generated fluorescent molecules. […] To establish the single cell specificity of compounds 4 and 16 for detection of activities in a mixed (co-cultured) cell population, cells were examined by fluorescent microscopy following concurrent exposure to compounds 4 and 16. […] Samples were incubated at 37° C. for 45 minutes, washed three times in PBS and images were acquired on a Nikon TE-2000 inverted fluorescence microscope. […]

[7] = Aerobic/anaerobic stability in cell-free culture media (fluorescence); format: physicochemical; conditions: 100 μM, 37° C., 4 hr, air or 95% N2
Method: Compounds 1-15 or methyl 7-nitrocoumarin carboxylate (methyl 7-nitro-2-oxo-2H-chromene-3-carboxylate) or 7-nitrocoumarin-3-carboylic acid or 6-chloro-9-nitro-5H-benzo[a]phenoxazin-5-one were added to a final concentration of 100 μM in cell-free culture media and were held at 37° C., 5% CO2 for 4 hr under either air or 95% N2. The fluorescence signal was monitored at 355/460 except for compounds 4 and 11 that were monitored at 405/585 and compounds 8, 10 and 6-Cl-9-nitro-5-oxo-5H-benzo[a]phenoxazine that were monitored at 355/585, 355/535 and 530/585 respectively (FIG. 12).

[8] = 300 μM, 95% N2, 355/460, 7.5 hour time frame

T2 sequence (P15559 whole entry): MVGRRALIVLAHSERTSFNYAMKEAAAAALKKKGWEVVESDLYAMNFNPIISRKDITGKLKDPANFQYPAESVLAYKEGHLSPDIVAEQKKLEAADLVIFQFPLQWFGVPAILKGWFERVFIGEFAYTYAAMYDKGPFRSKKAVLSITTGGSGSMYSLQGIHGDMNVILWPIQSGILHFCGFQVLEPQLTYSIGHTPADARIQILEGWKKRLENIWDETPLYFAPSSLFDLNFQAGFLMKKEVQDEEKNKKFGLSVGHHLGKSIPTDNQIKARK
T1 sequence (P38489 whole entry): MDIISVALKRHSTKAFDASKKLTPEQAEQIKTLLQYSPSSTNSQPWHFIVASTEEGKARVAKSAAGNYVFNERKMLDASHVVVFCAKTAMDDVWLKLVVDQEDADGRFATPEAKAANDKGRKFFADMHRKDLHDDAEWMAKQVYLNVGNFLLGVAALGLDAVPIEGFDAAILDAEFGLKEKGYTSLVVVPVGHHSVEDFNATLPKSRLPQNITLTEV
T3 sequence (P38489 whole entry): as above

For Cn1ccc(=O)c2cc([N+](=O)[O-])ccc21 [Compound 2, 1-Methyl-6-nitro-4(1H)-quinolinone], the “time by which reduction by HCT116 NTR cells approached completion” value ([1]; 5×10^6 cells/ml) was at most 9 h, the “fluorescence in control or parental HCT116 WT cultures” value [1] was “No detectable fluorescence” and the “increase in background florescence in culture media” value (shortened to “increase in background florescence”) [2] was 1.4 fold. The “aqueous stability compared with methyl-7-nitrocoumarin carboxylate and 7-nitrocoumarin-3-carboxylic acid” value [2] was “superior aqueous stability”, the “fluorescence in control cell line MDA231 WT” value [3, 8] was “no detectable fluorescence” and the “fluorescence in nitroreductase-expressing cell line MDA231 NTR” value [3, 8] was “robust fluorescent signal”. For the same compound, the “differential fluorescent signal MDA231 NTR versus MDA231 WT” value ([3]; 300 μM) was 480 fold and the “performance as nitroreductase fluorescent reporter relative to methyl 7-nitrocoumarin carboxylate” value ([3]; FIG. 10) was “superiority”.
In the case of CN(C)CCNC(=O)c1cc(N)cc2c(=O)c3ccccc3[nH]c12 [Compound 18, 2-Amino-N-[2-(dimethylamino)ethyl]-9-oxo-9,10-dihydro-4-acridinecarboxamide], the melting point was 198 to 202 °C.
COC(=O)CCCNS(=O)(=O)c1ccc2cccc(N)c2c1 [Compound 22, Methyl 4-{[(8-amino-2-naphthyl)sulfonyl]amino}butanoate] gave a melting point of 162 to 167 °C.
COC(=O)CCCNS(=O)(=O)c1cccc2c([N+](=O)[O-])cccc12 [Compound 8, methyl 4-{[(5-nitro-1-naphthyl)sulfonyl]amino}butanoate] gave a melting point of 94 to 96 °C.
Work on CN(C)CCCOc1ccnc2cc([N+](=O)[O-])ccc12 (as salt: trifluoroacetate) [Compound 14, N,N-dimethyl-3-[(7-nitro-4-quinolinyl)oxy]-1-propanamine] yielded a melting point of 146 to 149 °C.
With Cc1cc(=O)c2cc([N+](=O)[O-])ccc2[nH]1 [Compound 3, 2-Methyl-6-nitro-4(1H)-quinolinone] the “fluorescent signal in the presence of human NQO1 expression” value [4] was “gave rise to a fluorescent signal; also recorded: generate a fluorescent signal”.
With Cn1ccc(=O)c2cc(N)ccc21 [Compound 17, 6-Amino-1-methyl-4(1H)-quinolinone] the melting point was 212 to 214 °C.
For CN(C)CCNC(=O)c1cc([N+](=O)[O-])cc2c(=O)c3ccccc3[nH]c12 [Compound 4, N-[2-(Dimethylamino)ethyl]-2-nitro-9-oxo-9,10-dihydro-4-acridinecarboxamide], the “cellular retention of fluorescence in nitroreductase expressing but not parental HCT116 cells” value [5] was “possessing cellular retention properties” and the “fluorescent output at Ex/Em 485/535 detecting Escherichia coli nfsB activity” value [6] was “gave fluorescent output”.
In the case of COC(=O)c1cc2ccc([N+](=O)[O-])cc2oc1=O [methyl 7-nitrocoumarin carboxylate, methyl 7-nitro-2-oxo-2H-chromene-3-carboxylate, reference compound], the “increase in background florescence” value [2] was 4.2 fold, the “fluorescence in cell-free culture media (instability)” value [7] was “measurable fluorescence” and the “fluorescence in control cell line MDA231 WT” value [3, 8] was “measurable fluorescence”. The “differential fluorescent signal MDA231 NTR versus MDA231 WT” value ([3]; 300 μM) was 1.6 fold.
In the case of CN(C)CCCCN1C(=O)c2cccc3cc(N)cc(c23)C1=O [Compound 19, 5-Amino-2-[4-(dimethylamino)butyl]-1H-benzo[de]isoquinoline-1,3(2H)-dione], the melting point was 99 to 101 °C.
For O=c1c(Cl)c2oc3cc([N+](=O)[O-])ccc3nc-2c2ccccc12 [6-chloro-9-nitro-5H-benzo[a]phenoxazin-5-one], the “fluorescence in cell-free culture media (instability)” value [7] was “measurable fluorescence; also recorded: lacks stability in culture medium under conditions of low oxygen”.
For O=C(O)c1cc2ccc([N+](=O)[O-])cc2oc1=O [7-nitrocoumarin-3-carboxylic acid, reference compound], the “increase in background florescence” value [2] was 5.3 fold and the “fluorescence in cell-free culture media (instability)” value [7] was “measurable fluorescence”.
With O=c1cc[nH]c2ccc([N+](=O)[O-])cc12 [Compound 1, 6-Nitro-4(1H)-quinolinone] the “retention of fluorescence in cells after wash” value ([5]; HCT116 WT:HCT116 NTR 50:50 co-culture, 100 μM for 1 hr, by 4 hours) was “no longer fluorescent”, the “fluorescence in wells with compound alone (control) or parental MDA231 WT” value ([4]; 300 μM, 355/460) was “No detectable fluorescence” and the “fluorescent signal generation by MDA231 DTD cells as a function of time” value ([4]; 300 μM, 355/460 (FIG. 6)) was “generate a fluorescent signal”. For the same compound, the “fluorescent signal in the presence of human NQO1 expression” value [4] was “gave rise to a fluorescent signal”, the “increase in background florescence” value [2] was 1.4 fold and the “aqueous stability compared with methyl-7-nitrocoumarin carboxylate and 7-nitrocoumarin-3-carboxylic acid” value [2] was “superior aqueous stability”.
In the case of CN(C)CCCNc1ccnc2cc([N+](=O)[O-])ccc12 [Compound 15, N^1,N^1-Dimethyl-N^3-(7-nitro-4-quinolinyl)-1,3-propanediamine], the “cellular retention of fluorescence in nitroreductase expressing but not parental HCT116 cells” value [5] was “possessing cellular retention properties”.
